Assay results published in ChEMBL document CHEMBL1128018, “Structure-activity relationships of the non-peptidyl growth hormone secretagogue L-692,429” (1994).
pEC50: −log10 of the molar value.

Legend:
Rattus norvegicus [1] = organism: Rattus norvegicus; test: Growth hormone release from rat pituitary cells; format: functional; conditions: Pituitary gland cell, read-out: ED50 (the source's name)
Rattus norvegicus [2] = organism: Rattus norvegicus; test: Growth hormone release was determined in rat pituitary cells at 1 uM; A - weakly active; format: functional, cell-based; conditions: Pituitary gland cell

For `C[C@@H](F)CNC(C)(C)CC(=O)N[C@@H]1CCc2ccccc2N(Cc2ccc(-c3ccccc3-c3nn[nH]n3)cc2)C1=O`, the pEC50 (Rattus norvegicus [1]) was 7.05.
`CC(C)(N)C(=O)N[C@@H]1CCc2ccccc2N(Cc2ccc(-c3ccccc3-c3nn[nH]n3)cc2)C1=O` showed a pEC50 (Rattus norvegicus [1]) of 7.52.
`CC(C)(CC(=O)N[C@@H]1CCc2ccccc2N(Cc2ccc(-c3ccccc3-c3nn[nH]n3)cc2)C1=O)NC[C@H](O)[C@@H](O)CO` showed a pEC50 (Rattus norvegicus [1]) of 7.40.
With `CC(C)(O)CNC(C)(C)CC(=O)N[C@@H]1CCc2ccccc2N(Cc2ccc(-c3ccccc3-c3nn[nH]n3)cc2)C1=O` the pEC50 (Rattus norvegicus [1]) was 8.00.
With `C[C@H](O)CCNC(C)(C)CC(=O)N[C@@H]1CCc2ccccc2N(Cc2ccc(-c3ccccc3-c3nn[nH]n3)cc2)C1=O` the “Growth hormone release activity call at 1 uM” value (Rattus norvegicus [2]) was “Weak activity”.
In the case of `CC(C)[C@H](O)CNC(C)(C)CC(=O)N[C@@H]1CCc2ccccc2N(Cc2ccc(-c3ccccc3-c3nn[nH]n3)cc2)C1=O`, the pEC50 (Rattus norvegicus [1]) was 6.00.
Molecule `CC(C)(N)CC(=O)N[C@@H]1CCc2ccccc2N(Cc2ccc(-c3ccccc3-c3nn[nH]n3)cc2)C1=O` has a pEC50 (Rattus norvegicus [1]) of 7.22.
`CC(C)(CC(=O)N[C@@H]1CCc2ccccc2N(Cc2ccc(-c3ccccc3-c3nn[nH]n3)cc2)C1=O)NCC(=O)O` was tested, and the “Growth hormone release activity call at 1 uM” value (Rattus norvegicus [2]) was “Weak activity”.
Work on `C[C@H](O)CCNC(C)(C)C(=O)N[C@@H]1CCc2ccccc2N(Cc2ccc(-c3ccccc3-c3nn[nH]n3)cc2)C1=O` yielded a pEC50 (Rattus norvegicus [1]) of 7.30.
Molecule `CCOC(=O)CNC(C)(C)CC(=O)N[C@@H]1CCc2ccccc2N(Cc2ccc(-c3ccccc3-c3nn[nH]n3)cc2)C1=O` has a pEC50 (Rattus norvegicus [1]) of 7.25.
With `CC(=O)O[C@@H](C)CNC(C)(C)CC(=O)N[C@@H]1CCc2ccccc2N(Cc2ccc(-c3ccccc3-c3nn[nH]n3)cc2)C1=O` the pEC50 (Rattus norvegicus [1]) was 6.70.
For `C[C@@H](O)CCNC(C)(C)CC(=O)N[C@@H]1CCc2ccccc2N(Cc2ccc(-c3ccccc3-c3nn[nH]n3)cc2)C1=O`, the pEC50 (Rattus norvegicus [1]) was 8.00.
`C[C@@H](O)CNC(C)(C)C(=O)N[C@@H]1CCc2ccccc2N(Cc2ccc(-c3ccccc3-c3nn[nH]n3)cc2)C1=O` was tested, and the pEC50 (Rattus norvegicus [1]) was 6.52.
With `C[C@H](O)CNC(C)(C)CC(=O)N[C@@H]1CCc2ccccc2N(Cc2ccc(-c3ccccc3-c3nn[nH]n3)cc2)C1=O` the pEC50 (Rattus norvegicus [1]) was 8.15.
For `C[C@H](O)CNC(C)(C)C(=O)N[C@@H]1CCc2ccccc2N(Cc2ccc(-c3ccccc3-c3nn[nH]n3)cc2)C1=O`, the pEC50 (Rattus norvegicus [1]) was 6.15.
`CO[C@H](C)CNC(C)(C)CC(=O)N[C@@H]1CCc2ccccc2N(Cc2ccc(-c3ccccc3-c3nn[nH]n3)cc2)C1=O` showed a pEC50 (Rattus norvegicus [1]) of 7.70.
Work on `C[C@@H](O)CNC(C)(C)CC(=O)N[C@@H]1CCc2ccccc2N(Cc2ccc(-c3ccccc3-c3nn[nH]n3)cc2)C1=O` [L-692585] yielded a pEC50 (Rattus norvegicus [1]) of 8.52.
`CC(C)(CC(=O)N[C@@H]1CCc2ccccc2N(Cc2ccc(-c3ccccc3-c3nn[nH]n3)cc2)C1=O)NC[C@H](O)CO` gave a pEC50 (Rattus norvegicus [1]) of 8.00.
Molecule `CC(C)(CC(=O)N[C@@H]1CCc2ccccc2N(Cc2ccc(-c3ccccc3-c3nn[nH]n3)cc2)C1=O)NC[C@H](O)c1ccccc1` has a pEC50 (Rattus norvegicus [1]) of 6.00.
`C[C@@H](O)CCNC(C)(C)C(=O)N[C@@H]1CCc2ccccc2N(Cc2ccc(-c3ccccc3-c3nn[nH]n3)cc2)C1=O` showed a pEC50 (Rattus norvegicus [1]) of 7.00.
Work on `CC(C)[C@@H](O)CNC(C)(C)CC(=O)N[C@@H]1CCc2ccccc2N(Cc2ccc(-c3ccccc3-c3nn[nH]n3)cc2)C1=O` yielded a pEC50 (Rattus norvegicus [1]) of 6.70.
Work on `CC(C)(CC(=O)N[C@@H]1CCc2ccccc2N(Cc2ccc(-c3ccccc3-c3nn[nH]n3)cc2)C1=O)NCCO` yielded a pEC50 (Rattus norvegicus [1]) of 7.52.
`CCCNC(C)(C)CC(=O)N[C@@H]1CCc2ccccc2N(Cc2ccc(-c3ccccc3-c3nn[nH]n3)cc2)C1=O` was tested, and the pEC50 (Rattus norvegicus [1]) was 7.30.
In the case of `C[C@H](CNC(C)(C)CC(=O)N[C@@H]1CCc2ccccc2N(Cc2ccc(-c3ccccc3-c3nn[nH]n3)cc2)C1=O)OCc1ccccc1`, the “Growth hormone release activity call at 1 uM” value (Rattus norvegicus [2]) was “Weak activity”.
`CC(C)(CC(=O)N[C@@H]1CCc2ccccc2N(Cc2ccc(-c3ccccc3-c3nn[nH]n3)cc2)C1=O)NCCOCc1ccccc1` was tested, and the “Growth hormone release activity call at 1 uM” value (Rattus norvegicus [2]) was “Weak activity”.
